Legend:
[1] = tested on: synovial sarcomas expressing Rosa26-LSL-SS18-SSX2; assay: Tumor growth in genetically engineered mouse model of synovial sarcoma; type: in vivo
Protocol: Mouse experiments were conducted with the approval of the University of Utah’s Institutional Animal Care Committee in accordance with legal and ethical standards established by the National Research Council and published in the Guide for the Care and Use of Laboratory Animals (protocol # 14-01016). The previously described Rosa26-LSL-SS18-SSX2 mice were maintained on a mixed strain background, C57BL/6 and SvJ. Mice were genotyped with the following primers: Rosa26-LSL-SS18-SSX2 (F flox-[…], F wt–[…]-TGG, R-[…]). TATCre was dosed by 10 μL intramuscular injections at 50 μM at 1 month of age.
(§1) Mice had tumors initiated at 1 month of age. Tumors developed for the next 6 months allowing tumor volumes to reach 500–1000 mm^3. Mice were then subjected to daily intraperitoneal injections of 20 mg/kg of YM155 for 11 days. One mouse with bilateral tumors was censored at day 7. Tumors were measured using digital calipers and volumes were calculated using the equation (L∗W^2)/2. A small portion of the tumor was fixed in 4% paraformaldehyde overnight and then embedded in paraffin. The rest of the tumor was flash frozen in liquid nitrogen and stored at −80 °C until further use.
The control mice group with tumor was compared to the YM155 treated tumor group in a single factor ANOVA statistical test. For most comparisons between control and YM155 treated synovial sarcomas, Student’s t-tests were performed.

[2] = tested on: BIRC5 promoter; assay: ChIP-qPCR of histone marks at the BIRC5 promoter in HS-SY-II cells; type: cell-based, human; details: 0.2 μM YM155, 24 h, vs controls
Protocol: (§2) Mouse tumors were pulverized in a Covaris tissueTUBE attached to a Covaris glass tube (13 × 65 mm) using a hammer and an aluminum block on dry ice. Samples were intermittently placed in liquid nitrogen to maintain molecular interactions. The powderized tissue was resuspended in PBS + protease inhibitors (Sigma, 11836153001, St. Louis, MO, USA) and fixed in 1% formaldehyde for 10 min at room temperature. The cross linking was quenched by adding 125 mM glycine. Samples were washed three times using cold PBS and cold centrifugation at 1000× g for 5 min. Similarly, cells can be fixed in 1% formaldehyde and washed while cells are still adherent to the bottom of the tissue culture dish. Cells in both cases were lysed using cold Farnham cell lysis buffer (5mM PIPES pH 8.0, 85 mM KCl, 0.5% NP-40) with protease inhibitors by incubating on ice for 10 min. Cells were collected and dounced with a glass tube and rod 20 times with a loose rod and 10 times with a tight rod. Samples were filtered through 70 μm filter and centrifuged at 1000× g for 10 min. The supernatant was removed and 1 mL of RIPA lysis buffer (1% NP-40, 0.5% Na deoxycholate, 0.1% SDS/PBS) was added for every 300 mg of tissue or 1 × 10^7 cells and incubated on ice for 10 min. Sonication proceeded in the following manner: 1 mL aliquots were sonicated with a 30 s on and 30 s off cycle for 8 cycles totaling 4 min of sonication time. Sonicated samples were centrifuged at 1400 rpm for 5 min and the supernatant was kept for chromatin immunoprecipitation.
Dynabeads (Invitrogen, 11204D, Carlsbad, CA, USA) were washed in 0.5 mg/mL BSA/PBS three times on a magnet. Sonicated samples were precleared with 30 μL of beads for 1 h at 4 °C. After preclearing, 50 μL of the sample was set aside as the input DNA. Supernatants were transferred to a new tube and 5 μg of primary antibodies were added and incubated overnight at 4 °C. The following antibodies were used for immunoprecipitation. […]

[3] = tested on: SYO-1 human synovial sarcoma cell line; assay: MTT viability assay, SYO-1 cells, 48 h; type: cell-based; details: 48 h treatment
Protocol: (§3) The human SYO-1, Yamato, and HS-SY-II cell lines were received from Torsten Nielsen at the University of British Columbia. The MoJo cell line was developed as previously described from a consented patient’s synovial sarcoma. Each was maintained in Dulbecco’s modified Eagle medium (DMEM) with 10% fetal bovine serum (FBS) and tested for mycoplasma using MycoAlert Plus (Lonza, Walkersville, MD, USA) every 6 months. Cells were seeded in a 96-well tissue culture dish at 1 × 10^4 cells per well. Twenty-four hours after seeding, serial dilutions of YM155 were applied so that the final concentration ranged from 10 μM to 1 nM. Between 24 to 48 h, MTT at 5 mg/mL was applied, and the cells were allowed to incubate at 37 °C and 5% CO2 for 2.5 h. Formazan crystals were resolubilized in 10% SDS and 0.01 M HCl. Absorbance was measured at 570 nm and normalized to 650 nm. Caspase activity was measured using the Caspase-Glo 3/7 and Caspase-Glo 8 (Promega, G8090, and G8200) assay systems. The manufacturer’s instructions were followed for a 96-well plate assay.

[4] = Body weight of mice during YM155 treatment; type: in vivo, mouse; details: 20 mg/kg daily for 11 days
Protocol: as §1

[5] = tested on: caspase 8; assay: Caspase-Glo 8 activity in HS-SY-II cells; type: cell-based, human; details: 24 h incubation
Protocol: (§4) Cells were seeded in a 96-well tissue culture dish at 1 × 10^4 cells per well. Twenty-four hours after seeding, serial dilutions of YM155 were applied so that the final concentration ranged from 10 μM to 1 nM. Between 24 to 48 h, MTT at 5 mg/mL was applied, and the cells were allowed to incubate at 37 °C and 5% CO2 for 2.5 h. Formazan crystals were resolubilized in 10% SDS and 0.01 M HCl. Absorbance was measured at 570 nm and normalized to 650 nm. Caspase activity was measured using the Caspase-Glo 3/7 and Caspase-Glo 8 (Promega, G8090, and G8200) assay systems. The manufacturer’s instructions were followed for a 96-well plate assay.

[6] = tested on: Yamato human synovial sarcoma cell line; assay: MTT viability assay, Yamato cells, 48 h; type: cell-based; details: 48 h treatment
Protocol: as §3

[7] = tested on: Mojo human synovial sarcoma cell line; assay: MTT viability assay, MoJo cells, 48 h; type: cell-based; details: 48 h treatment
Protocol: as §3

[8] = tested on: survivin; assay: Survivin immunoblot of treated mouse synovial sarcomas; type: in vivo; details: mouse sarcomas after 11 days of YM155; p = 0.034
Protocol: as §1
(§5) Protein was isolated from cells or tissues by incubating in a mild lysis buffer (10 mM Tris-HCl pH 8.1, 10 mM NaCl, 0.5% NP-40, and proteinase inhibitors). The fractions were clarified at 14,000 rpm for 10 min before loading 25–50 μg/sample for gel electrophoresis and transfer to PVDF membrane. Western blots were probed with the following primary antibodies: anti-Survivin (Cell Signaling Technology, 2808, 1:1000), anti-NFκB/p65 (Cell Signaling Technology, 8242, 1:800) anti-GAPDH (Proteintech, 10494-1-AP, 1:1000). The immunoblots were probed secondarily with goat anti-rabbit antibodies conjugated with horse radish peroxidase and bands were detected using Bio-Rad Gel Doc MP imaging station.

[9] = tested on: Birc5 promoter; assay: ChIP-qPCR of histone marks at the Birc5 promoter in treated mouse synovial sarcomas; type: in vivo; details: mouse synovial sarcomas treated 11 days, vs controls
Protocol: as §1
Mouse tumors were pulverized in a Covaris tissueTUBE attached to a Covaris glass tube (13 × 65 mm) using a hammer and an aluminum block on dry ice. Samples were intermittently placed in liquid nitrogen to maintain molecular interactions. The powderized tissue was resuspended in PBS + protease inhibitors (Sigma, 11836153001, St. Louis, MO, USA) and fixed in 1% formaldehyde for 10 min at room temperature. The cross linking was quenched by adding 125 mM glycine. Samples were washed three times using cold PBS and cold centrifugation at 1000× g for 5 min. Similarly, cells can be fixed in 1% formaldehyde and washed while cells are still adherent to the bottom of the tissue culture dish. […]

[10] = tested on: caspase 3/7; assay: Caspase-Glo 3/7 activity in HS-SY-II cells; type: cell-based, human; details: 24 h incubation
Protocol: as §4

[11] = tested on: HS-SY-II human synovial sarcoma cell line; assay: MTT viability assay, HS-SY-II cells, 24 h; type: cell-based; details: 24 h viability assay
Protocol: as §3

[12] = parameters: method as in PMID 18824702; details: patients, clinical trials; cited from earlier work
[13] = tested on: NFκB; assay: NFκB immunoblot of treated mouse synovial sarcomas; type: in vivo; details: mouse sarcomas after 11 days of YM155; p = 0.015
Protocol: as §1, §5

[14] = tested on: BIRC5; assay: BIRC5 transcript level by PCR normalized to GAPDH; type: cell-based, human; details: HS-SY-II, 24 h, normalized to GAPDH mRNA; p = 0.0006
[15] = tested on: synovial sarcoma; assay: YM155 in combination with BCL2 inhibitors
[16] = tested on: NFκB binding to the BIRC5 promoter; assay: ChIP-qPCR for NFκB at the BIRC5 promoter in HS-SY-II cells; type: cell-based, human; details: 0.2 μM YM155, 24 h, vs control, p = 0.32
Protocol: as §2, with “Sonicated samples were centrifuged at 1400 rpm for 5 min and the supernatant was kept for chromatin immunoprecipitation.” left out

[17] = tested on: survivin; parameters: method as in PMID 20816704; details: cited from earlier work

**Q.** Which “decrease of tumor growth (mean) over 11 days” value ([1]; 20 mg/kg daily intraperitoneal for 11 days, control tumors 1.78-fold increase, p = 0.028) does the source give for COCCn1c2c([n+](Cc3cnccn3)c1C)C(=O)c1ccccc1C2=O [YM155, sepantronium bromide] here?
**A.** The value was 17%.

**Q.** What about the “reduction in tumor volume compared to control treated mice” value ([1]; treated mice with synovial sarcoma) of the same compound?
**A.** The value was 50%.

**Q.** And the “H3K4me1 at the BIRC5 promoter (ChIP-qPCR)” value [2]?
**A.** The value was “a decrease”.

**Q.** And the “H3K27ac at the Birc5 promoter (ChIP-qPCR)” value [2]?
**A.** Its value is “elevated levels”.

**Q.** And the “H3K27me3 at the Birc5 promoter (ChIP-qPCR)” value [2]?
**A.** The value was “elevated levels”.

**Q.** And the EC50 [3]?
**A.** Its EC50 is 103 nM.

**Q.** What about the “weight loss in treated mice” value [4] of the same compound?
**A.** The value was “no detectable weight loss”.

**Q.** What about the “caspase 8 activity” value [5] of the same compound?
**A.** Its value is “increased with higher concentrations”.

**Q.** And the EC50 [6]?
**A.** Its EC50 is 22 nM.

**Q.** What about the EC50 [7] of the same compound?
**A.** Its EC50 is 62 nM.

**Q.** What about the “survivin protein level (immunoblot, normalized to GAPDH)” value [8] of the same compound?
**A.** Its value is “striking decrease”.

**Q.** And the “H3K27me3 at the Birc5 promoter (ChIP-qPCR)” value ([9]; p = 0.045)?
**A.** Its value is “elevated levels”.

**Q.** And the “H3K27ac at the Birc5 promoter (ChIP-qPCR)” value ([9]; p = 0.14)?
**A.** The value was “elevated levels”.

**Q.** What about the “caspase 3/7 activity” value [10] of the same compound?
**A.** Its value is “increased with higher concentrations”.

**Q.** What about the EC50 [11] of the same compound?
**A.** Its EC50 is 2640 ± 140 nM.

**Q.** And the “dose associated with adverse events” value [12]?
**A.** The value was “above 4.8 mg/m^2/day”.

**Q.** What about the “NFκB protein level (immunoblot, normalized to GAPDH)” value [13] of the same compound?
**A.** Its value is “striking increase”.

**Q.** What about the “reduction in normalized BIRC5 expression” value [14] of the same compound?
**A.** The value was 39.5%.

**Q.** And the “synergy of combination with BCL2 inhibitors” value [15]?
**A.** The value was “minimally synergistic”.

**Q.** And the “binding of NFκB to the BIRC5 promoter (ChIP-qPCR)” value [16]?
**A.** Its value is “unable to detect a difference”.

**Q.** Which “survivin levels upon inhibition of NFκB” value [17] does the source give for Cc1ccc(S(=O)(=O)/C=C/C#N)cc1 [BAY 11-7082] here?
**A.** The value was “decrease in survivin levels”.

Source: publication PMC6463023, “Epigenetic Changes at the Birc5 Promoter Induced by YM155 in Synovial Sarcoma” (Journal of Clinical Medicine, 2019)
